Measurements published in BindingDB's records for doi:10.1021/jm400944k (China Pharmaceutical University, 2013).

These compounds were tested against T1, Nuclear factor erythroid 2-related factor 2 (Homo sapiens, UniProt Q16236) (assay: Induction of Nrf2-mediated ARE activity in human HepG2-ARE-C8 cells after 12 hrs by luciferase reporter gene assay).
T1 sequence (Q16236 whole entry): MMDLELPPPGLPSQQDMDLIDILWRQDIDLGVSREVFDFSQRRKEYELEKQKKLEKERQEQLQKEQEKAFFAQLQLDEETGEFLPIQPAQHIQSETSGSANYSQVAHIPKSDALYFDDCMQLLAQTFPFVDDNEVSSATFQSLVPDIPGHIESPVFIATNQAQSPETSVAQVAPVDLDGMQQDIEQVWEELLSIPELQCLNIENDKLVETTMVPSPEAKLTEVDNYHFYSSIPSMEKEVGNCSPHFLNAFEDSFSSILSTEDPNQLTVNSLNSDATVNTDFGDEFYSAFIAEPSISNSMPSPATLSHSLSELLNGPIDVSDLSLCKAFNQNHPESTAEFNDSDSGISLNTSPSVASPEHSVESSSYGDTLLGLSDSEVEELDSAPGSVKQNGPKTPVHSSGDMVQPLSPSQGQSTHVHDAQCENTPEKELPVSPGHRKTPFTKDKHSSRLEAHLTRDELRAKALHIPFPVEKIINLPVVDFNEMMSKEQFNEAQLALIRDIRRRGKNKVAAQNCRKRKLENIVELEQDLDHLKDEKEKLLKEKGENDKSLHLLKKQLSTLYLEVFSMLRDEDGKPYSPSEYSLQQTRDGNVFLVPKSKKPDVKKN
In the case of `COc1ccc2c(c1)C1CN/C(=C\C(=O)c3ccccc3)C(=O)N1CC2` (configuration not stated), the EC50 is reported as greater than 100 µM. For `COc1cc2c(cc1OC)C1CN/C(=C\C(=O)c3cccc(Cl)c3)C(=O)N1CC2` (configuration not stated), the EC50 was greater than 100 µM. In the case of `COc1ccc2c(c1)C1CN/C(=C\C(=O)c3cccc(F)c3)C(=O)N1CC2` (configuration not stated), the EC50 is reported as greater than 100 µM. `COc1cccc(C(=O)/C=C2\NCC3c4cc(OC)ccc4CCN3C2=O)c1` (configuration not stated) showed an EC50 greater than 100 µM. With `COc1ccccc1C(=O)/C=C1\NCC2c3ccccc3CCN2C1=O` (configuration not stated) the EC50 was greater than 100 µM. Compound `O=C(/C=C1\NCC2c3ccccc3CCN2C1=O)c1ccccc1[N+](=O)[O-]` (configuration not stated) has an EC50 greater than 100 µM. Compound `COc1ccc(C(=O)/C=C2\NCC3c4ccccc4CCN3C2=O)cc1OC` (configuration not stated) has an EC50 of 93 µM. Compound `O=C(/C=C1\NCC2c3ccccc3CCN2C1=O)c1ccc(-c2ccccc2)cc1` (configuration not stated) has an EC50 greater than 100 µM. `O=C(/C=C1\NCC2c3ccccc3CCN2C1=O)c1ccc(F)c(F)c1` (configuration not stated) was tested, and the EC50 was greater than 100 µM. For `COc1cccc(C(=O)/C=C2\NCC3c4ccccc4CCN3C2=O)c1` (configuration not stated), the EC50 was greater than 100 µM. Compound `O=C(/C=C1\NCC2c3ccccc3CCN2C1=O)c1ccc([N+](=O)[O-])cc1` (configuration not stated) has an EC50 greater than 100 µM. For `O=C(/C=C1\NCC2c3ccccc3CCN2C1=O)c1ccc(Cl)cc1` (configuration not stated), the EC50 was greater than 100 µM. Compound `O=C(/C=C1\NCC2c3ccccc3CCN2C1=O)c1ccccc1Cl` (configuration not stated) has an EC50 greater than 100 µM. For `COc1ccc2c(c1)CCN1C(=O)/C(=C/C(=O)c3cccc(F)c3)NCC21` (configuration not stated), the EC50 was greater than 100 µM. With `COc1ccc2c(c1)CCN1C(=O)/C(=C/C(=O)c3ccccc3)NCC21` (configuration not stated) the EC50 was greater than 100 µM. `COc1cccc2c1CCN1C(=O)/C(=C/C(=O)c3ccccc3F)NCC21` (configuration not stated) was tested, and the EC50 was greater than 100 µM. In the case of `COc1cc2c(cc1OC)C1CN/C(=C\C(=O)c3ccc(F)cc3)C(=O)N1CC2` (configuration not stated), the EC50 is reported as 81.5 µM. Compound `COc1cc2c(cc1OC)C1CN/C(=C\C(=O)c3cccc(F)c3)C(=O)N1CC2` (configuration not stated) has an EC50 of 92 µM. For `COc1cc2c(cc1OC)C1CN/C(=C\C(=O)c3cccc([N+](=O)[O-])c3)C(=O)N1CC2` (configuration not stated), the EC50 was 49.6 µM. In the case of `COc1cc2c(cc1OC)C1CN/C(=C\C(=O)c3ccccc3F)C(=O)N1CC2` (configuration not stated), the EC50 is reported as 75.9 µM. Work on `O=C(/C=C1\NCC2c3ccccc3CCN2C1=O)c1cc(F)cc(F)c1` (configuration not stated) yielded an EC50 of 58.9 µM. In the case of `COc1cc2c(cc1OC)C1CN/C(=C\C(=O)c3ccccc3)C(=O)N1CC2` (configuration not stated), the EC50 is reported as greater than 100 µM. `COc1ccc2c(c1)C1CN/C(=C\C(=O)c3cccc(Cl)c3)C(=O)N1CC2` (configuration not stated) was tested, and the EC50 was greater than 100 µM. Compound `Cc1ccc(C(=O)/C=C2\NCC3c4ccccc4CCN3C2=O)cc1` (configuration not stated) has an EC50 greater than 100 µM. With `O=C(/C=C1\NCC2c3ccccc3CCN2C1=O)c1ccc(F)cc1` (configuration not stated) the EC50 was greater than 100 µM. `O=C(/C=C1\NCC2c3ccccc3CCN2C1=O)c1cccc(Br)c1` (configuration not stated) showed an EC50 of 59.1 µM. In the case of `COc1ccc2c(c1)C1CN/C(=C\C(=O)c3cccc([N+](=O)[O-])c3)C(=O)N1CC2` (configuration not stated), the EC50 is reported as greater than 100 µM. `O=C(/C=C1\NCC2c3ccccc3CCN2C1=O)c1ccc(Cl)cc1Cl` (configuration not stated) showed an EC50 greater than 100 µM. `COc1ccc2c(c1)CCN1C(=O)/C(=C/C(=O)c3ccccc3F)NCC21` (configuration not stated) gave an EC50 greater than 100 µM. `COc1cccc2c1CCN1C(=O)/C(=C/C(=O)c3ccccc3)NCC21` (configuration not stated) showed an EC50 of 58.5 µM. `COc1ccc2c(c1)C1CN/C(=C\C(=O)c3ccc(F)cc3)C(=O)N1CC2` (configuration not stated) was tested, and the EC50 was 88 µM. `COc1ccc2c(c1)C1CN/C(=C\C(=O)c3ccccc3F)C(=O)N1CC2` (configuration not stated) gave an EC50 greater than 100 µM. `O=C(/C=C1\NCC2c3ccccc3CCN2C1=O)c1cccc(F)c1` (configuration not stated) was tested, and the EC50 was greater than 100 µM. For `O=C(/C=C1\NCC2c3ccccc3CCN2C1=O)c1cccc([N+](=O)[O-])c1` (configuration not stated), the EC50 was greater than 100 µM. With `O=C(/C=C1\NCC2c3ccccc3CCN2C1=O)c1cccc(Cl)c1` (configuration not stated) the EC50 was greater than 100 µM. With `O=C(/C=C1\NCC2c3ccccc3CCN2C1=O)c1cccc(C(F)(F)F)c1` (configuration not stated) the EC50 was greater than 100 µM. `COc1cccc2c1CCN1C(=O)/C(=C/C(=O)c3cccc(F)c3)NCC21` (configuration not stated) gave an EC50 greater than 100 µM. For `COc1cccc(C(=O)/C=C2\NCC3c4cc(OC)c(OC)cc4CCN3C2=O)c1` (configuration not stated), the EC50 was greater than 100 µM. For `COc1ccc(C(=O)/C=C2\NCC3c4ccccc4CCN3C2=O)cc1` (configuration not stated), the EC50 was greater than 100 µM. For `O=C(/C=C1\NCC2c3ccccc3CCN2C1=O)c1ccccc1F` (configuration not stated), the EC50 was greater than 100 µM. Compound `O=C(/C=C1\NCC2c3ccccc3CCN2C1=O)c1ccccc1` (configuration not stated) has an EC50 greater than 100 µM. With `CC(C)(C)c1cc(O)ccc1O` [CHEBI:78886] the EC50 was 91.5 µM.
